Laboratory results reported in paper PMC9814205, “Targeting undruggable carbohydrate recognition sites through focused fragment library design” (Communications Chemistry, 2022).
“And” between values parts separate entries of the source, which are not always exact repeats. Equal entries are not always repeated. “Also recorded” adds a separate entry of the source.

Assays:
Type in all cases: binding
LecA [1] = molecular target: T1, LecA (Pseudomonas aeruginosa, UniProt Q05097); test: Competitive fluorescence polarization (FP) assay; details: for inhibition at 10000 µM: read-out: Inhibition in FP, compared to MeGal at 10 mM (16 h); for Inhibition in FP: compared to MeGal at 10 mM (16 h)
T1 construct: made in house
T1 sequence (Q05097 whole entry): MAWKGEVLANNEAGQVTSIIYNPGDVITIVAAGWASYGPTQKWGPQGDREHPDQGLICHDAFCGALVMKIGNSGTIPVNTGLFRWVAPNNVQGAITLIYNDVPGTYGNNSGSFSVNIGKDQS
Method: The FP assay was performed in a black 384-well plate (Greiner Bio-One, Germany, 781900) with the final volume of 20 µL as described previously. Briefly, 10 µL of a sample solution series (10–0.078 mM) in TBS buffer containing 10 mM Ca^2+ (TBS/Ca^2+-buffer) and 20% DMSO were added in technical triplicates to 10 µL LecA (40 µM) preincubated with a galactose-based Cy5 conjugate[68] (20 nM) in TBS/Ca^2+-buffer. […] The plate was sealed (EASYseal, Greiner Bio-One, 676,001), centrifuged (1 min, 1500 rpm, 25 °C) and incubated in a humidity chamber for 16 h. The fluorescence was measured with an excitation 590 nm and emission 675 nm filter[68] on a PheraStar FS plate reader (BMG Labtech GmbH, Germany). The blank signal of TBS/Ca^2+-buffer containing 10% DMSO was subtracted and the compounds were analyzed with the MARS Data Analysis Software (BMG Labtech GmbH Germany) using the four-parameter variable slope model. The top and bottom plateaus were defined according to the positive controls. The graphs were visualized using Graphpad Prism 5. The percentage (%) of inhibition was calculated at the highest concentration compared with 10 mM MeGal set to 100%.

15N LecA = molecular target: T2, 15N LecA (Pseudomonas aeruginosa, UniProt Q05097); test: 1H-15N TROSY NMR with 15N LecA; details: 4 mM analogs of 1, 1 mM marketed hydroxamates
T2 construct: made in house
T2 sequence (Q05097 whole entry): as above
Method: (§1) The ^1H-^15N TROSY pulse sequence trosyf3gpphsi19 with 128 increments and 32 scans per increment was applied for 0.15 mM ^15N LecA and 0.07 mM LecB in HBS/Ca^2+ buffer (20 mM HEPES pH 7.4, 150 mM NaCl, 10 mM CaCl2, 10% D2O and 100 µM sodium trimethylsilylpropanesulfonate (DSS) as internal reference) at 310 K. The ^1H-^15N HSQC pulse sequence hsqcf3gpph19 with 128 increments and 8 scans per increment was applied for 0.1 mM ^15N DC-SIGN and Langerin CRD in HBS/Ca^2+ buffer at 298 K. For screening of 650 non-fluorinated fragments of the general library against ^15N LecA, a mix of 10 compounds at 1 mM each was combined with 0.15 mM ^15N LecA in HBS/Ca^2+ buffer (20 mM HEPES pH 7.4, 150 mM NaCl, 10 mM CaCl2, 10% D2O and 100 µM sodium trimethylsilylpropanesulfonate (DSS) as internal reference, whereas the fragments with the MBP scaffolds were validated separately at 1 mM. Similarly, 9 nonfluorinated fragments from the MBP library were screened against ^15N-labeled DC-SIGN, LecA and LecB. To validate the fragment binding to proteins, we recorded ^1H-^15N HSQC and TROSY NMR of proteins in the presence of DMSO as negative control and 2 mM fragments in HBS/Ca^2+ buffer. Natural ligands were used as positive controls at 1 mM MeGal, MeFuc and 30 mM D-mannose to LecA/LecB and DC-SIGN CRD/Langerin CRD, respectively. Titration experiments with ^15N-labeled DC-SIGN CRD or LecB were recorded in HBS/Ca^2+ buffer with 30 mM CaCl2 and 0.25 to 4–8 mM malonic acid derivatives. The Kd values were calculated according to the one-site-binding model in Origin(Pro) 2020b (OriginLab Corp., USA). Ligand efficiency calculations were done according to Eq. (1) for a temperature of 298 K and 310 K for DC-SIGN CRD and LecB, respectively.1 LE=RTlnKd/HA, with the temperature T [K], the gas constant R [kcal mol^−1 K^−1], and the number of non-hydrogen atoms HA[56].
(§2) All data were processed with NMRpipe[65] and analyzed with CcpNmr analysis. For data analysis, the protein fingerprint of ^15N DC-SIGN (Table S7) or Langerin CRD was assigned as reported previously. The ^1H-^15N TROSY resonances of ^15N LecA and ^15N LecB were indexed with IDs due to a lack of protein backbone resonance assignment (Tables S8-S9). Next, resonance IDs from protein spectra were transferred to the spectra obtained in the presence of compounds in order to compare the changes in chemical shift perturbations for the fast exchange peaks. The changes in chemical shift perturbations (CSPs) were calculated according to Eq. (2):2 △δ=1/2△δH2+α△δN^2 in which δ is the difference in chemical shift (in ppm) and α is an empirical weighting factor of 0.14 for all amino acid backbone resonances. The threshold value was set based on three independent measurements of reference spectra to 0.01 ppm for LecA, LecB, DC-SIGN CRD and Langerin CRD.

5FW LecA (PA-IL) = molecular target: T3, 5FW LecA (PA-IL) (Pseudomonas aeruginosa, UniProt Q05097); test: PrOF NMR with 5-fluorotryptophan-labeled LecA
T3 construct: made in house
T3 sequence (Q05097 2-122): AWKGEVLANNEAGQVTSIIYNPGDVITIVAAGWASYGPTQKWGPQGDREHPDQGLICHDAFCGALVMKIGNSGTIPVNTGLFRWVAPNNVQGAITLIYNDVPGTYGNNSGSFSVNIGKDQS
Method: PrOF NMR was performed as reported previously. Briefly, 150 µM 5FW LecA was recorded alone and in the presence of DMSO or 2–4 mM compounds in TBS/Ca^2+ buffer. The difference in chemical shift perturbations of W42 in 5FW LecA free vs bound forms was followed to determine Kd values of compounds. The Kd values were calculated according to the one-site-binding model in Origin(Pro) 2020b (OriginLab Corp., USA) from two or three independent titrations. Ligand efficiency values were calculated according to Eq. (1) for a temperature of 310 K.

DC-SIGN CRD (CD209) = molecular target: T4, DC-SIGN CRD (CD209) (Homo sapiens, UniProt Q9NNX6); test: 1H-15N HSQC NMR with 15N DC-SIGN CRD
T4 construct: the carbohydrate recognition domain (CRD) of DC-SIGN in ^1H-^15N HSQC/TROSY NMR experiments; made in house
T4 sequence (Q9NNX6 263-378 limits assumed): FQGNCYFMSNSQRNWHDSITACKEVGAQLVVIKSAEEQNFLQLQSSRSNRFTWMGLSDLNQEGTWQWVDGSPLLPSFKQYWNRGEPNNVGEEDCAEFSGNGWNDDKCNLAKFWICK
Method: as §1, §2

LecA [2] = molecular target: T1, LecA; test: SPR with immobilized LecA; details: compounds at 0.2 and 1 mM
Method: All experiments were performed on a BIACORE X100 instrument (GE Healthcare) at 25 °C in phosphate-buffered saline (10 mM phosphate buffer pH 7.4, 2.7 mM KCl, 137 mM NaCl, 0.05% Tween-20, 100 µM CaCl2, 5% DMSO). LecA was immobilized onto a CM7 chip (BIACORE) following standard amine coupling procedures. The CM7 chip was activated by three injections of a NHS/EDC mixture with a contact time of 540 s at a flow rate of 10 µL min^−1 until the response exceeded 800 RU, followed by multiple injections of LecA dissolved in 10 mM sodium acetate pH 4.5 (100 µg/mL) onto channel 2 (contact time of 540 s at a flow rate of 10 µL min^−1). A minimum of 10,000 RU of LecA was captured onto the chip. Initial binding screens were performed with the injections of 0.2 and 1 mM of each hydroxamate (association 30 s, dissociation 60 s, 30 µL min^−1 flow rate), to identify the initial binders eliciting dose-response behaviors. Injection of the positive control (0.1 mM 4-Nitrophenyl-β-D-galactoside) was included after every forth injection cycle to monitor the activity of immobilized LecA throughout the binding screen experiments. All data evaluation was performed using BIACORE X100 evaluation software (v.2.0).

LecA [3] = molecular target: T1, LecA; test: Competitive 19F T2-filtered NMR with reporter 5; details: 0.1 mM 5, 10 mM CaCl2, 3 mM competitor
Method: The analogs of 1 (5) and 58 (61) were used as fluorinated spy molecules in ^19F T2-filtered NMR experiments. Two samples containing 0.1 mM 5 or 61 alone or a 10 µM protein in TBS/EDTA buffer followed by addition of 10 mM CaCl2 and the carbohydrates: 1 mM MeGal (LecA), 1 mM MeFuc (LecB/BambL) and 30 mM D-mannose (DC-SIGN/Langerin). Similarly, 0.1 mM 5 was used to prioritize hydroxamate derivatives, where 3 mM analogs of 1 were added to the samples instead of the carbohydrates. The ^19F and ^19F T2-filtered spectra were recorded with 64 scans, a spectral width of 5 ppm, a transmitter offset at −155.5 ppm (5) and −155.5 ppm (61), the acquisition time of 0.8 s, 2 s relaxation time applying a T2-filter of 384 ms. All spectra were analyzed as described above.

SMILES: O=C(COCCc1ccccc1)NO [compound 43]
- inhibition at 10000 µM (LecA [1]): 8 ± 3%
- binding to 15N LecA in TROSY NMR (15N LecA): not tolerated

SMILES: COc1ccc(CC(=O)NO)cc1 [compound 15]
- Inhibition in FP (LecA [1]): 14–16% and 16 ± 4%

SMILES: O=C(CCCc1ccc([N+](=O)[O-])cc1)NO [compound 39]
- Inhibition in FP (LecA [1]): 4 ± 2%

SMILES: O=C(CCCc1cccs1)NO [compound 37]
- inhibition at 10000 µM (LecA [1]): 25 ± 3%

SMILES: O=C(CCCc1ccc(Br)cc1)NO [compound 38]
- inhibition at 10000 µM (LecA [1]): 25 ± 1%

SMILES: Cc1ccc(CC(=O)NO)cc1 [compound 9]
- Inhibition in FP (LecA [1]): 14–16% and 16 ± 2%

SMILES: CN(O)C(=O)Cc1ccccc1 [compound 8]
- inhibition at 10000 µM (LecA [1]): 20 ± 3%
- binding to 15N LecA in TROSY NMR (15N LecA): not tolerated

SMILES: O=C(CCCc1ccc(O)cc1)NO [compound 41]
- Inhibition in FP (LecA [1]): 39 ± 1%
- inhibition at 10000 µM (LecA [1]): 27 to 39%

SMILES: O=C(Cc1ccc(Br)cc1)NO [compound 11]
- Inhibition in FP (LecA [1]): 14–16% and 14 ± 1%

SMILES: O=C(O)C(F)(CC1CCC1)C(=O)O [compound 61]
- binding to 5FW LecA (perturbation of W42) in PrOF NMR (5FW LecA (PA-IL); 2 mM compound): perturbed W42; also recorded: strongest perturbation of W42
- W42 [ppm] (5FW LecA (PA-IL); 19F resonance of 0.15 mM 5FW LecA with 2 mM compound, DMSO 120.50): 120.32 ppm
- W2 [ppm] (5FW LecA (PA-IL); 19F resonance of 0.15 mM 5FW LecA with 2 mM compound, DMSO 121.43): 121.46 ppm
- W33 [ppm] (5FW LecA (PA-IL); 19F resonance of 0.15 mM 5FW LecA with 2 mM compound, DMSO 121.67): 121.73 ppm
- W84 [ppm] (5FW LecA (PA-IL); 19F resonance of 0.15 mM 5FW LecA with 2 mM compound, DMSO 123.50): 123.52 ppm
- Kd (DC-SIGN CRD (CD209); 15N DC-SIGN CRD, titration, one-site binding model, 30 mM CaCl2): 1900 µM
- LE (DC-SIGN CRD (CD209); ligand efficiency calculated from Kd for DC-SIGN CRD, 298 K): 0.28 kcal mol^−1 HA^−1

SMILES: O=C(CCCCCCC(=O)Nc1ccccc1)NO [compound 47, reference compound]
- Efficiency in SPR (normalized binding response) (LecA [2]): 3.8%
- binding to 15N LecA in TROSY NMR (15N LecA): not tolerated; also recorded: none of the marketed metalloproteinase inhibitors (47, 49, 50) bound; also recorded: no binding
- competition of reporter 5 from LecA (recovery of 19F peak) (LecA [3]): did not displace
